Source: ChEMBL document CHEMBL4265899, “Trisubstituted thiazoles as potent and selective inhibitors of Plasmodium falciparum protein kinase G (PfPKG)” (Bioorg Med Chem Lett, 2018)
≈ marks a conversion by molar mass, not a printed value.

Experiments:
[1] = target: Mitogen-activated protein kinase 3 (Homo sapiens) (UniProt P27361); assay: Inhibition of human ERK1 at 100 nM
[2] = Metabolic stability in mouse liver microsomes assessed as compound remaining after 40 mins; format: ADME, microsome; conditions: read-out: Stability
[3] = Lipophilicity, log D of the compound at pH 7.4; conditions: buffer
[4] = Kinetic solubility of the compound
[5] = target: Dual specificity mitogen-activated protein kinase kinase 1 (Homo sapiens) (UniProt Q02750); assay: Inhibition of human MKK1 at 100 nM
[6] = target: Mitogen-activated protein kinase 8 (Homo sapiens) (UniProt P45983); assay: Inhibition of human JNK1 at 100 nM
[7] = target: Ribosomal protein S6 kinase alpha-1 (Homo sapiens) (UniProt Q15418); assay: Inhibition of human RSK1 at 100 nM
[8] = target: 3-phosphoinositide-dependent protein kinase 1 (Homo sapiens) (UniProt O15530); assay: Inhibition of human PDK1 at 100 nM
[9] = target: Protein kinase C alpha type (Homo sapiens) (UniProt P17252); assay: Inhibition of human PKCalpha at 100 nM
[10] = target: Protein kinase C zeta type (Homo sapiens) (UniProt Q05513); assay: Inhibition of human PKCzeta at 100 nM
[11] = target: MAP kinase-interacting serine/threonine-protein kinase 2 (Homo sapiens) (UniProt Q9HBH9); assay: Inhibition of human MNK2 at 100 nM
[12] = target: Calcium/calmodulin-dependent protein kinase kinase 2 (Homo sapiens) (UniProt Q96RR4); assay: Inhibition of human CAMKKb at 100 nM
[13] = target: Calcium/calmodulin-dependent protein kinase type 1 (Homo sapiens) (UniProt Q14012); assay: Inhibition of human CAMK1 at 100 nM
[14] = target: Myosin light chain kinase, smooth muscle (Homo sapiens) (UniProt Q15746); assay: Inhibition of human SmMLCK at 100 nM
[15] = target: Phosphorylase kinase (Homo sapiens) (UniProt P15735+P46020+P46019+Q93100+Q16816); assay: Inhibition of human PHK at 100 nM; format: protein-complex assay
[16] = target: CDK2/Cyclin A2 (Homo sapiens) (UniProt P24941+P20248); assay: Inhibition of human CDK2/Cyclin A at 100 nM; format: protein-complex assay
[17] = target: Aurora kinase B (Homo sapiens) (UniProt Q96GD4); assay: Inhibition of human Aurora B at 100 nM
[18] = target: Dual specificity tyrosine-phosphorylation-regulated kinase 1A (Homo sapiens) (UniProt Q13627); assay: Inhibition of human DYRK1A at 100 nM
[19] = target: Serine/threonine-protein kinase Nek6 (Homo sapiens) (UniProt Q9HC98); assay: Inhibition of human NEK6 at 100 nM
[20] = target: SRSF protein kinase 1 (Homo sapiens) (UniProt Q96SB4); assay: Inhibition of human SRPK1 at 100 nM
[21] = target: Serine/threonine-protein kinase 3 (Homo sapiens) (UniProt Q13188); assay: Inhibition of human MST2 at 100 nM
[22] = target: Homeodomain-interacting protein kinase 2 (Homo sapiens) (UniProt Q9H2X6); assay: Inhibition of human HIPK2 at 100 nM
[23] = target: Tyrosine-protein kinase Lck (Homo sapiens) (UniProt P06239); assay: Inhibition of human LCK at 100 nM
[24] = target: Tyrosine-protein kinase CSK (Homo sapiens) (UniProt P41240); assay: Inhibition of human CSK at 100 nM
[25] = target: Fibroblast growth factor receptor 1 (Homo sapiens) (UniProt P11362); assay: Inhibition of human FGFR1 at 100 nM
[26] = target: Insulin receptor-related protein (Homo sapiens) (UniProt P14616); assay: Inhibition of human IRR at 100 nM
[27] = target: Tyrosine-protein kinase Yes (Homo sapiens) (UniProt P07947); assay: Inhibition of human YES1 at 100 nM
[28] = target: Insulin-like growth factor 1 receptor (Homo sapiens) (UniProt P08069); assay: Inhibition of human IGF1R at 100 nM
[29] = target: Vascular endothelial growth factor receptor 2 (Homo sapiens) (UniProt P35968); assay: Inhibition of human VEGFR at 100 nM
[30] = target: Serine/threonine-protein kinase TBK1 (Homo sapiens) (UniProt Q9UHD2); assay: Inhibition of human TBK1 at 100 nM
[31] = target: NUAK family SNF1-like kinase 1 (Homo sapiens) (UniProt O60285); assay: Inhibition of human NUAK1 at 100 nM
[32] = target: Misshapen-like kinase 1 (Homo sapiens) (UniProt Q8N4C8); assay: Inhibition of human MINK1 at 100 nM
[33] = target: Serine/threonine-protein kinase STK11 (Homo sapiens) (UniProt Q15831); assay: Inhibition of human LKB1 at 100 nM
[34] = target: Dual specificity protein kinase TTK (Homo sapiens) (UniProt P33981); assay: Inhibition of human TTK at 100 nM
[35] = target: Receptor-interacting serine/threonine-protein kinase 2 (Homo sapiens) (UniProt O43353); assay: Inhibition of human RIPK2 at 100 nM
[36] = species: Homo sapiens; conditions: at 100 nM
Description: Inhibition of human PKA at 100 nM

[37] = target: T1, Inhibitor of nuclear factor kappa-B kinase subunit epsilon (Homo sapiens) (UniProt Q14164); conditions: at 100 nM
T1 sequence (whole entry): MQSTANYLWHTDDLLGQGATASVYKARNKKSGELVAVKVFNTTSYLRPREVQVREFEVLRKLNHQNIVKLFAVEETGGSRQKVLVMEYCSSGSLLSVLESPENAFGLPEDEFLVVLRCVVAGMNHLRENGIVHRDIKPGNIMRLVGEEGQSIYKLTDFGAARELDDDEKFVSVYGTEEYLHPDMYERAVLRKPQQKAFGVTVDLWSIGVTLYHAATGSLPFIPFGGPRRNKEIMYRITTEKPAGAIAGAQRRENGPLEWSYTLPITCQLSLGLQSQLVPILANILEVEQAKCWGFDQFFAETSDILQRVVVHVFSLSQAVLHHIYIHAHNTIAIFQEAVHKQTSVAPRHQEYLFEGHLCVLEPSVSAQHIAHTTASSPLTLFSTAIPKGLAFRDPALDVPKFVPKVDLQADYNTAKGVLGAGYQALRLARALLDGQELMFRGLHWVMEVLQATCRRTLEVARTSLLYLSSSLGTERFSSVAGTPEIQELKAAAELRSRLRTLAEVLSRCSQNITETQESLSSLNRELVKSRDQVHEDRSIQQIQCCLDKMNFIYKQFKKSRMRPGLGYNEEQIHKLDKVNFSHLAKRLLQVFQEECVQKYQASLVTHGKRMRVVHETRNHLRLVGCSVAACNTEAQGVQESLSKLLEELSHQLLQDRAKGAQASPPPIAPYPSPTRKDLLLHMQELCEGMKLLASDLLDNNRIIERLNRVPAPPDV
Description: Inhibition of human IKKepsilon at 100 nM

Chain of Dual specificity mitogen-activated protein kinase kinase 1 (Homo sapiens) (Q02750 whole entry): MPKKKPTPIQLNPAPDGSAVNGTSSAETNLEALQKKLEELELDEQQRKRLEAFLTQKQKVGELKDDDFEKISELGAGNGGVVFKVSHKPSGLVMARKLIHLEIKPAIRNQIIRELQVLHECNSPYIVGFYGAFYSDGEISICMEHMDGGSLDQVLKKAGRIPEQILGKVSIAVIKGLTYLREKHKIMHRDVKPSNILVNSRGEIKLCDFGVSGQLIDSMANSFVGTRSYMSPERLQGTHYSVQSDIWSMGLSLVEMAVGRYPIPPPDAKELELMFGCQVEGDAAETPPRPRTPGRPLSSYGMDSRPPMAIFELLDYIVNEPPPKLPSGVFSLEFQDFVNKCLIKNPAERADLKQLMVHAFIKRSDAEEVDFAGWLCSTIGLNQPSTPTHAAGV
Chain of Serine/threonine-protein kinase Nek6 (Homo sapiens) (Q9HC98 whole entry): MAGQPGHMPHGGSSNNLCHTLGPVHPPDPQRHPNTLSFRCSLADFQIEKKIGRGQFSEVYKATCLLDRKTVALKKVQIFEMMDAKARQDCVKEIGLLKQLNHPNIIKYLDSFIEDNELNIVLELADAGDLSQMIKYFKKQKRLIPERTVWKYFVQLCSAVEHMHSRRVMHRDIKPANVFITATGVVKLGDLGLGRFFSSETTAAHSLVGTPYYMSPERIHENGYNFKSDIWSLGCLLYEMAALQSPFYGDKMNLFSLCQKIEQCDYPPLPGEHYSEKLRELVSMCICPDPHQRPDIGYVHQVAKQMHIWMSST
Chain of Serine/threonine-protein kinase 3 (Homo sapiens) (Q13188 whole entry): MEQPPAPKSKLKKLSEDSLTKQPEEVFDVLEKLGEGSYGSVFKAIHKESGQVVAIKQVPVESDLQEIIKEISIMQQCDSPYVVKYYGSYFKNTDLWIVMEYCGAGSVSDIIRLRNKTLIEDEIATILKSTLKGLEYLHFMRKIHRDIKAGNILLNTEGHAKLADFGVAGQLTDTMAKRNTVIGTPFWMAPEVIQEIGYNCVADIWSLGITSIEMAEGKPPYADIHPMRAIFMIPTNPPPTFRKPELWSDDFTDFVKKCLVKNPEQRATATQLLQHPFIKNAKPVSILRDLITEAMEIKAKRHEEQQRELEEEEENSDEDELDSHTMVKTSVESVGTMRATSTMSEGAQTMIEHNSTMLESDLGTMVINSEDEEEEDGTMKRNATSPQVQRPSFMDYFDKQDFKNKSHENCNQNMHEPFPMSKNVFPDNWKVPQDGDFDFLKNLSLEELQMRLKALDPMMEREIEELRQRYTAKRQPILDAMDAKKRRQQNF
Chain of Serine/threonine-protein kinase TBK1 (Homo sapiens) (Q9UHD2 whole entry): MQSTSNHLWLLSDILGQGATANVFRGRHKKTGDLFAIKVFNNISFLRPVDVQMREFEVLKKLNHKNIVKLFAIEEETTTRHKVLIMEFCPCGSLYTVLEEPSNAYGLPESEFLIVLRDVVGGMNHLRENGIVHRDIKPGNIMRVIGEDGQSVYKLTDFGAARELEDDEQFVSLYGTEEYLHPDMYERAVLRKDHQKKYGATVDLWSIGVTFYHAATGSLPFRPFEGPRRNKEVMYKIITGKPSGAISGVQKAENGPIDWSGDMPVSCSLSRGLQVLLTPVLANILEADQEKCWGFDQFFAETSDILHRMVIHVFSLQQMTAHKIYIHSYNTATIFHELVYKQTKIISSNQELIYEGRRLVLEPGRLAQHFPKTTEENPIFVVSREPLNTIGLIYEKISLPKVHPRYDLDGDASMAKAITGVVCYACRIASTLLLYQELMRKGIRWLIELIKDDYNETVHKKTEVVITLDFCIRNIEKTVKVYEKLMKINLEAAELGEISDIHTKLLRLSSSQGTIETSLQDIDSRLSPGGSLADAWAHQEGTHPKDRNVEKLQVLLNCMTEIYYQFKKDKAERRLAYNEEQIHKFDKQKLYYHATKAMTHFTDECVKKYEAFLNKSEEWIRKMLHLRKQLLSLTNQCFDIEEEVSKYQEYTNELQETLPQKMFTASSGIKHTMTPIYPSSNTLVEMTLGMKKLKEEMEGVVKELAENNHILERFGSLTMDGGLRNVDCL
Chain of Calcium/calmodulin-dependent protein kinase kinase 2 (Homo sapiens) (Q96RR4 2-588 limits assumed): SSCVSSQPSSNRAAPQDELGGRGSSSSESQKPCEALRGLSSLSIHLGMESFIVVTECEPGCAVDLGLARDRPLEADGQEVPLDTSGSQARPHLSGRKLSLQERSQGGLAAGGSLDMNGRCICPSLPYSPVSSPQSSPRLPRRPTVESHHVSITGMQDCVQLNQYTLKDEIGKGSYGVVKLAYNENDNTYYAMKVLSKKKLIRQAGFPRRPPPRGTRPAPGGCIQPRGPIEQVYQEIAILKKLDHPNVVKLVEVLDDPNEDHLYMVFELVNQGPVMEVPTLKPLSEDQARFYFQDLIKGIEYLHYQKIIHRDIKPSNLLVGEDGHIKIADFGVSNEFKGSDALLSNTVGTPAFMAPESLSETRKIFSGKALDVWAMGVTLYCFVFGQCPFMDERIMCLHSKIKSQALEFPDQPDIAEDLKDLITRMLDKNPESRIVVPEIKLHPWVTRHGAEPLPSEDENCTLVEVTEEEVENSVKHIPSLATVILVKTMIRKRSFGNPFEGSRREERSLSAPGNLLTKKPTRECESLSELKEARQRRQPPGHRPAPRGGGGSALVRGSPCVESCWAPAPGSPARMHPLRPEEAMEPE
Chain of Mitogen-activated protein kinase 8 (Homo sapiens) (P45983 whole entry): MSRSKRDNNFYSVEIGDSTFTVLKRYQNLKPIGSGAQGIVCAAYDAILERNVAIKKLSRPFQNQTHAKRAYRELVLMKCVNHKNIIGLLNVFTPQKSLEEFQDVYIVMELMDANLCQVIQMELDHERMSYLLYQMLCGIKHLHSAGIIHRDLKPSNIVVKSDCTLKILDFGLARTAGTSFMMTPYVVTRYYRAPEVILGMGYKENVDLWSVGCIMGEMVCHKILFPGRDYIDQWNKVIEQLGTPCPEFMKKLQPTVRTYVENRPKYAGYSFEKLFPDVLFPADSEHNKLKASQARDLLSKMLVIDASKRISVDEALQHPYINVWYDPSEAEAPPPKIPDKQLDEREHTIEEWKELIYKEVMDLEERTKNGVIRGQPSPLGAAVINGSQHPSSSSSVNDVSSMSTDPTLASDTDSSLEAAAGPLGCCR
Chain of Ribosomal protein S6 kinase alpha-1 (Homo sapiens) (Q15418 whole entry): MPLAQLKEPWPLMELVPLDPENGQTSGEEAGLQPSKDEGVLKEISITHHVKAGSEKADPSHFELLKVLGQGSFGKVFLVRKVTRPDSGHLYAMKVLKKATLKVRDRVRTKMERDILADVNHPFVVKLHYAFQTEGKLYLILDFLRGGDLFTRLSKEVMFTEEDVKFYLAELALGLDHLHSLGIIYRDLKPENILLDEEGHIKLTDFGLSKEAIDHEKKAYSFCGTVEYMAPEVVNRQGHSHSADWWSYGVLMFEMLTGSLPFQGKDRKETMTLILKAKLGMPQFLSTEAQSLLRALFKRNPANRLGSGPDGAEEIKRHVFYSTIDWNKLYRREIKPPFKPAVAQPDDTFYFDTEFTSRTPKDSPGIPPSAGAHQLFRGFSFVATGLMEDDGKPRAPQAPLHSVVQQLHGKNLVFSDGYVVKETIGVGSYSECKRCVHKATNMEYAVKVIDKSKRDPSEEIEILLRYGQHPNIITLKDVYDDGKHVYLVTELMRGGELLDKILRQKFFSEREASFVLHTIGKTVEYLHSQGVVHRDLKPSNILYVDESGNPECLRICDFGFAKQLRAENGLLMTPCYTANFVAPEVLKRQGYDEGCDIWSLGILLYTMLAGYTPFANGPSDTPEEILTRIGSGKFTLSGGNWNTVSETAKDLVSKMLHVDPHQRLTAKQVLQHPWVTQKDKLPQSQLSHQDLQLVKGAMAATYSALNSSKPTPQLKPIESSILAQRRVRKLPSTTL
Chain of Vascular endothelial growth factor receptor 2 (Homo sapiens) (P35968 whole entry): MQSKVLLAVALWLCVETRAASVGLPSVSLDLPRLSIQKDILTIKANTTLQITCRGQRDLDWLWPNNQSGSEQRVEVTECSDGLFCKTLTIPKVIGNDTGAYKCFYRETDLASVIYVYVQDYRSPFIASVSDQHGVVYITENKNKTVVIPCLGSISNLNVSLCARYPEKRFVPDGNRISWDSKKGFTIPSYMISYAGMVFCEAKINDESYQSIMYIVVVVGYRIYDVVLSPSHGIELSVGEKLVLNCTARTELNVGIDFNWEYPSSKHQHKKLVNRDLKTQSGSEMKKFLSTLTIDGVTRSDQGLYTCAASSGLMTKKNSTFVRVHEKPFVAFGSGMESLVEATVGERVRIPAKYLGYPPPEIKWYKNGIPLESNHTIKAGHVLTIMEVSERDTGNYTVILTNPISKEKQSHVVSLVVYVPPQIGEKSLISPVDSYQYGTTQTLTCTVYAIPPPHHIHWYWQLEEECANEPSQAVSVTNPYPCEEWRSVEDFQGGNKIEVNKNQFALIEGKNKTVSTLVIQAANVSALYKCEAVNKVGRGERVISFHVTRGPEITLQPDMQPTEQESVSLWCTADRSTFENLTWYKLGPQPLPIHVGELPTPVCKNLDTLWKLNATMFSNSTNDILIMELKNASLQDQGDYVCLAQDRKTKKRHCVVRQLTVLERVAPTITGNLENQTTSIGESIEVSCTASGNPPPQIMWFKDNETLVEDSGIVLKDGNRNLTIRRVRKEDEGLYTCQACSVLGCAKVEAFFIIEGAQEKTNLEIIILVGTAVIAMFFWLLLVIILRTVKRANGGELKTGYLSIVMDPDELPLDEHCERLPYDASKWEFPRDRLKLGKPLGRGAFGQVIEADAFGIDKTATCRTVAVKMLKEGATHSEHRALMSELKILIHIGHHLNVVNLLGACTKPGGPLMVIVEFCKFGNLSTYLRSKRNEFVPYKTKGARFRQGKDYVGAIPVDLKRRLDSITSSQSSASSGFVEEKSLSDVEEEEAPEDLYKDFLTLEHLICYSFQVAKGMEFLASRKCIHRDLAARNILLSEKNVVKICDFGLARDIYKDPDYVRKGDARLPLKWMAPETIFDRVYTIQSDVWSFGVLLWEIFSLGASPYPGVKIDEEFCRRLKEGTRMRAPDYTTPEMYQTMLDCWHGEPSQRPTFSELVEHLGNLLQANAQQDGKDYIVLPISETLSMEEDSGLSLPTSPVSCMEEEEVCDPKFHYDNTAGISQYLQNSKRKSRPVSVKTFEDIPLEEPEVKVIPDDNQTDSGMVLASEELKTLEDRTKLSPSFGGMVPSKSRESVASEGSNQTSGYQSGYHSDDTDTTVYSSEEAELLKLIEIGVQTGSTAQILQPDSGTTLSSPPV

SMILES	inhibition [1] [%]	remaining at 40 min [2] [%]	logD [3]	solubility kinetic [4] [µM]	inhibition [5] [%]	inhibition [6] [%]	inhibition [7] [%]	inhibition [8] [%]	inhibition [9] [%]	inhibition [10] [%]	inhibition [11] [%]	inhibition [12] [%]	inhibition [13] [%]	inhibition [14] [%]	inhibition [15] [%]	inhibition [16] [%]	inhibition [17] [%]	inhibition [18] [%]	inhibition [19] [%]	inhibition [20] [%]	further results
CN1CCC(c2nc(-c3ccc(F)c(NS(C)(=O)=O)c3)c(-c3ccnc(NCC4CC4)n3)s2)CC1	< 70	89	1.9	190 (≈ 98.2 µg/mL)	< 70	< 70	< 70	< 70	< 70	< 70	< 70	< 70	< 70	< 70	< 70	< 70	< 70	< 70	< 70	< 70	inhibition [21]: < 70%; inhibition [22]: < 70%; inhibition [23]: < 70%; inhibition [24]: < 70%; inhibition [25]: < 70%; inhibition [26]: < 70%; inhibition [27]: < 70%; inhibition [28]: < 70%; inhibition [29]: < 70%; inhibition [30]: < 70%; inhibition [31]: < 70%; inhibition [32]: < 70%; inhibition [33]: < 70%; inhibition [34]: < 70%; inhibition [35]: < 70%; inhibition [36]: < 70%; inhibition [37]: < 70%
CN1CCC(c2nc(-c3cccc(S(C)(=O)=O)c3)c(-c3ccnc(Nc4ccc(N5CCNCC5)cc4)n3)s2)CC1	< 70	89	0.3	208 (≈ 123 µg/mL)	< 70	< 70	< 70	< 70	< 70	< 70	< 70	< 70	< 70	< 70	< 70	< 70	< 70	< 70	< 70	< 70	inhibition [21]: < 70%; inhibition [22]: < 70%; inhibition [23]: < 70%; inhibition [24]: < 70%; inhibition [25]: < 70%; inhibition [26]: < 70%; inhibition [27]: < 70%; inhibition [28]: < 70%; inhibition [29]: < 70%; inhibition [30]: < 70%; inhibition [31]: < 70%; inhibition [32]: < 70%; inhibition [33]: < 70%; inhibition [34]: < 70%; inhibition [35]: 70 to 90%; inhibition [36]: < 70%; inhibition [37]: < 70%
